Consider 15 compounds from PubChem BioAssay (NCI).

Molecules are shown by their SMILES.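 Exposure lasted 48 hours, with cells grown in 96-well plates and compounds tested at five concentrations. Definition used: TGI = concentration required for complete inhibition of growth.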 Where a SMILES comes first, the peptide text is derived from it. The star is where a group is joined. Cbz = O=C(OCc1ccccc1)* A value given as a limit tells only on which side of the number the result lay.

What all share (experiment): DTP human tumour cell line panel, 48 h
Assay [1] relates to UACC-257 melanoma.
The subject of assay [2] is SK-MEL-28 melanoma.
The test system of assay [3] is DU-145 prostate.
The test system of assay [4] is MDA-MB-231 breast.
For assay [5], the system named is EKVX NSCLC.
In assay [6] the test system is UACC-62 melanoma.
Assay [7] relates to SF-539 CNS.
The subject of assay [8] is M14 melanoma.
Assay [9] deals with HS 578T breast.
Assay [10] concerns SR leukemia.
The subject of assay [11] is IGROV1 ovarian.
The subject of assay [12] is COLO 205 colon.

In the case of `Fc1cc(-c2cc(-c3ccccc3)no2)c(Cl)cc1Cl`, the TGI was greater than 71.6 µM in assay [1]; greater than 56.4 µM in assay [2]; greater than 48.6 µM in assay [3]; 32.8 µM in assay [4]; greater than 51.9 µM in assay [5]; greater than 100 µM in assay [6]. The TGI was greater than 17.2 µM in assay [7]; greater than 54.7 µM in [8]; greater than 88.9 µM in assay [9]; greater than 41.8 µM in assay [10]; greater than 50.8 µM in [11]; greater than 16.2 µM in assay [12].

For `COC(=O)C(Cc1c[nH]c2ccccc12)NP(=O)(O)OCC1OC(n2cc(I)c(=O)[nH]c2=O)CC1O` (stereo not given), the TGI in assay [1], in [2], in assay [3], in [4], in [5] and in [6] was greater than 100 µM in each case. Besides, the TGI in assay [7], in assay [8], in assay [9], in assay [10], in [11] and in [12] was greater than 100 µM in each case.

In the case of `CC(=O)c1c(C)n([O-])c2cc(Cl)c(Cl)cc2[n+]1=O`, the total growth inhibition concentration (TGI) in assay [1] is 57.4 µM; in assay [2], greater than 100 µM; in assay [3], greater than 100 µM; in assay [4], 62.7 µM; in assay [5], greater than 100 µM; in assay [6], 50 µM. Besides, the TGI was 72.5 µM in assay [7]; greater than 100 µM in [8]; 74 µM in assay [9]; 62.2 µM in assay [10]; 24.4 µM in assay [11]; 30.1 µM in [12].

Take `COc1cc(C2c3cc4c(cc3OC3(OC)COC(=O)C23)OCO4)cc(OC)c1OC(C)=O` (stereo not given): the TGI in assay [1], in [2], in [3], in assay [4], in assay [5] and in assay [6] was greater than 100 µM in each case. The TGI was 2.25 µM in assay [7]; greater than 74.2 µM in assay [8]; greater than 100 µM in [9]; greater than 31.6 µM in [10]; greater than 100 µM in [11]; greater than 49.3 µM in [12].

As for `N#Cc1c(N)nc2n[nH]c(N)c2c1-c1ccc(Cl)cc1`, the TGI in [1] was greater than 100 µM; in [2], greater than 100 µM; in assay [3] it was greater than 71.8 µM; in [4], 10.4 µM; in assay [5], 44 µM; in assay [6], 4.23 µM. Moreover, the concentration for total growth inhibition (TGI) was 45 µM in [7]; greater than 39.8 µM in [8]; 8.64 µM in assay [9]; greater than 100 µM in assay [10]; 7.39 µM in assay [11]; greater than 100 µM in [12].

For `O=C(/C=C/c1cc2ccccc2o1)N1CCN(c2ccccn2)CC1`, the TGI in [1], in assay [2], in [3], in assay [4], in [5] and in assay [6] was greater than 100 µM in each case. Moreover, the total growth inhibition concentration (TGI) in [7], in [8], in [9], in [10], in [11] and in [12] was greater than 100 µM each time.

For `O=C1CCCC1CN1CCCC1` (stereo not given), the TGI in assay [1] is 30.9 µM; in assay [2], 27.7 µM; in [3], greater than 66.4 µM; in assay [4], 31.3 µM; in [5], 42.8 µM; in assay [6] it was 32.6 µM. The TGI turned out to be 36.7 µM in [7]; 6.74 µM in [8]; 55.7 µM in assay [9]; 1.16 µM in assay [10]; 26.6 µM in assay [11]; 8.74 µM in assay [12].

For the compound `CN(C)CCCC12CCCCC1=Nc1ccccc12` (stereo not given), the concentration for total growth inhibition (TGI) in [1], in assay [2], in assay [3], in [4], in assay [5] and in assay [6] was greater than 100 µM throughout. The TGI was greater than 100 µM in assay [7]; greater than 100 µM in [8]; greater than 100 µM in [9]; 69.2 µM in [10]; greater than 100 µM in assay [11]; greater than 100 µM in assay [12].

With `CCOC(=O)c1nnc2c(C(=O)OCC)c3ccccc3n2c1N`, the TGI in [1] is 11.1 µM; in [2] it was greater than 100 µM; in assay [3], greater than 100 µM; in assay [4] it was 87.8 µM; in assay [5] it was greater than 100 µM; in assay [6], 9.25 µM. For the same compound, the TGI in [7] was greater than 100 µM; in assay [8], greater than 100 µM; in assay [9], greater than 100 µM; in assay [10], greater than 100 µM; in assay [11], 38.2 µM; in [12], 49.6 µM.

Take `O=C1/C(=C/c2ccccc2S)N=C(c2ccccc2)N1c1nc2c(Cl)cc(Cl)cc2s1`: the TGI was greater than 100 µM in assay [1]; greater than 100 µM in assay [2]; greater than 100 µM in assay [3]; 80.9 µM in assay [4]; 36 µM in assay [5]; 57.5 µM in [6]. The TGI in assay [7] amounted to 40.8 µM; in [8], 66.2 µM; in assay [9], 75.8 µM; in assay [10], 34 µM; in assay [11], 67.2 µM; in assay [12] it was 54.8 µM.

`Nc1nc(N)c2c3c(cnc2n1)CC(c1ccccc1)CC3` (stereo not given): the TGI in assay [1] is greater than 100 µM; in [2], greater than 100 µM; in assay [3], greater than 100 µM; in assay [4] it was 96.8 µM; in [5], greater than 100 µM; in assay [6] it was greater than 100 µM. Also, the TGI in assay [7] is greater than 100 µM; in assay [8] it was greater than 100 µM; in assay [9], greater than 100 µM; in assay [10], 66.1 µM; in [11], 21.7 µM; in assay [12], greater than 100 µM.

For `CC(=O)c1[nH]c(NCc2ccccc2)c(C(=S)Nc2ccccc2)c1N`, the TGI in [1] was 49.2 µM; in [2], 52 µM; in [3], greater than 100 µM; in assay [4], 34.1 µM; in [5], greater than 100 µM; in assay [6], 32.5 µM. For the same compound, the TGI was 32.1 µM in assay [7]; 33.7 µM in assay [8]; 58.9 µM in assay [9]; greater than 100 µM in [10]; 14.1 µM in assay [11]; greater than 100 µM in [12].

In the case of `Cc1nc2c(nc1C)-c1[nH]c3c(c1C(=O)C2=O)CCCC3=O`, the TGI worked out at 4.83 µM in [1]; 3.16 µM in assay [2]; 23.5 µM in [3]; 3.4 µM in [4]; 3.71 µM in assay [5]; 3.25 µM in assay [6]. The TGI in assay [7] is 3.12 µM; in assay [8], 3.4 µM; in assay [9], greater than 59.2 µM; in assay [10], 6.4 µM; in assay [11], 11.5 µM; in assay [12], 7.93 µM.

`O=C(O)CCC(NC(=O)OCc1ccccc1)C(=O)NC(Cc1cnc[nH]1)C(=O)O` (stereo not drawn) (Cbz-Glu-His-OH; configuration not given here): the TGI in assay [1], in [2], in assay [3], in [4], in assay [5] and in assay [6] was greater than 100 µM in each case. The TGI in assay [7], in [8], in assay [9], in assay [10], in [11] and in [12] was greater than 100 µM each time.

Turning to `O=C(O)C(NCc1ccccc1)C(NCc1ccccc1)C(=O)O` (stereo not given), the TGI in assay [1], in assay [2], in assay [3], in [4], in assay [5] and in assay [6] was greater than 100 µM throughout. Further, the TGI in assay [7], in assay [8], in assay [9], in [10], in assay [11] and in assay [12] was greater than 100 µM throughout.
